In one experiment the test system is anti-NGF mAb NGF30. As to the kind of experiment: Competitive ELISA, anti-NGF mAb NGF30 binding to immobilized NGF (selectivity control). The protocol: (§1) The effect of compounds I-B and LM-24 on the binding between NGF and p75 was tested in competitive ELISA assays, where the antagonists prevent soluble p75 from binding to immobilized NGF. The selectivity of antagonism was evaluated by lack of effect upon NGF-TrkA or lack of effect between NGF and anti-NGF monoclonal antibody (mAb) NGF30 interactions (FIG. 1A).
(§2) Competitive ELISAs were performed as described (Saragovi et al., 1998). The procedure immobilized 50 ng/well NGF, or pro-NGF (Alomone Labs, Israel) onto polystyrene 96-well microtest plates, with washing and blocking with binding buffer (BB; phosphate buffered saline containing 0.5% bovine serum albumin). The following primary reagents in BB were added: recombinant chimeric p75-Fc or recombinant chimeric TrkA-Fc (R&D), or anti-NGF mAb NGF30 (Saragovi et al., 1998); each at 50 nM. The competitors I-B and the other test compounds (or control LM-24) were added at the indicated concentrations, and the plates were incubated for 45 minutes. After washing 3× in BB, HRP-conjugated secondary reagents (Sigma) were added for 30 min (goat anti-human Fc for p75-Fc and for TrkA-Fc; and goat anti-rat Ab for NGF30 mAb), and then wells were washed 3× in BB and 1× in PBS. Peroxidase activity was determined colorimetrically using the substrate TMB One Solution (Promega). The reaction was stopped with 0.5 N H2SO4 and the plates were read at 450 nm (Benchmark Plus, Bio-Rad). Assays were repeated n>4 times, with replicates of 4 wells each assay. […] Wells with no NGF immobilized but with all other reagents added were treated as background (<15% of maximal signals) and standardized to 0% binding.
(An ELISA detects its analyte on a solid surface through an enzyme-linked reagent.)

For a further experiment, the system named is nnr5 cells. As to the kind of experiment: Pro-NTF killing assay (MTT), nnr5 cells. Format: cell-based. The settings on record: pro-NTF 50 nM + I-B 20 μM, 72 hours. As for the experimental part:
(§3) The effect of I-B on the pro-apoptotic function of pro-NGF or pro-BDNF was tested in functional MTT assays measuring cell metabolism (FIG. 1B).
(§4) Cells (5,000 cells/well) were cultured in 96-well plates (Falcon, Lincoln Park, N.J.) in normal culture media (RPMI1640, Hepes, Glutamine, 5% serum). Wells were supplemented with NGF, BDNF, pro-NGF, or pro-BDNF (Alomone Labs) (50 nM final), in the presence or absence of I-B (20 μM final). Wells containing all culture conditions but no cells were used as blanks. The growth/survival profile of the cells was quantified using MTT (Sigma) 72 hours after plating. Optical density readings of MTT were done in a Benchmark Plus microplate Spectrophotometer (BioRad) at 595 nm with blanks subtracted.

A further experiment deals with B104 cells. The experiment is described as follows: Pro-NTF killing assay (MTT), B104 cells. Format: cell-based. To be noted: pro-NTF 50 nM + I-B 20 μM, 72 hours. As for the experimental part:
as §3, §4

A further experiment has as its target T1, TrkA-Fc (Homo sapiens, UniProt P04629).
T1 construct: purchased R&D
The experiment is described as follows: Competitive ELISA, TrkA-Fc binding to immobilized NGF (selectivity control). As for the experimental part:
as §1, §2

Experiment [1] concerns retinal ganglion cells (RGCs). As to the kind of experiment: Glaucoma (episcleral vein cauterization) model, quantification of surviving RGCs. Format: in vivo. The settings on record: rat glaucoma, intravitreal injections days 14 and 21, endpoint day 42; contralateral normal eye = 100%; control glaucoma 74-77%. The protocol:
Wistar rats (female, 250-300 g; Charles River) were kept in a 12 hours dark-light cycle with food and water ad libitum. All animal manipulations were performed between 9 AM and 12 AM. Deep anesthesia was used during cauterization (induction of glaucoma), ON transection, fluorogold labeling, intraocular injection procedures, Optical Coherence Tomography measurements, and euthanasia (ketamine, xylazine, acepromazine injected intraperitoneally: 50/5/1 mg/kg, as per IACUC recommendations). For measuring IOP, light anesthesia was used (a gas mixture of Oxygen, 2% isofluorane mixture, at a rate of 2.5 liter/min, as per IACUC recommendations).
The episcleral vein cauterization (EVC) model of rat (Shi et al., 2007; Shi et al., 2008) was used. […]
For studies in the glaucoma animal model the injections were performed at days 14 and 21 after cauterization. […] Thus, in this paradigm there is pre-existing damage for 14 days before treatment (measured at ˜8% RGC death (Shi et al., 2007; Shi et al., 2008)); and the treatments require long-lived efficacy in the constant presence of retinal stress due to high IOP. […]
Quantification of labeled RGCs was performed as reported (Shi et al., 2007; Shi et al., 2008). […] Pictures for each freshly flat-mounted retina were taken using a Zeiss fluorescence microscope (Carl Zeiss Meditec, Jena, Germany), with 12 pictures/retina at 20× magnification. […]

[2] abbreviates: competitive ELISA, FIG. 1A, compound at 30 μM.

This note sets out measurements from patent US9296691B2, “Inhibitors of p75 receptor and their uses” (Horacio Uri Saragovi, priority 2010, dated 2016).

T1 sequence (P04629 33-423 limits assumed): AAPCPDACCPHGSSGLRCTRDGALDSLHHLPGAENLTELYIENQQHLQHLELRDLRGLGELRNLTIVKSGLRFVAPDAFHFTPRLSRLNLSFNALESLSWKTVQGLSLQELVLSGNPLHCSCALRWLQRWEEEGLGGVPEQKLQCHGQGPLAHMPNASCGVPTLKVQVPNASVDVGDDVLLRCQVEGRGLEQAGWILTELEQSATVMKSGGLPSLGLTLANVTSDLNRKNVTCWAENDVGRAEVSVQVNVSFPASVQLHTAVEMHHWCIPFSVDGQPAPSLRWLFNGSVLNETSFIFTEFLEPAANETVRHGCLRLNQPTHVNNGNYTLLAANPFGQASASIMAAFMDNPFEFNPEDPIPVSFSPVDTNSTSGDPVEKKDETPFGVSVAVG

Take `CC(C)NC(=O)N(C(=O)Cn1cnc2c1c(=O)n(C)c(=O)n2C)C(C)C` [I-B, 1,3-Diisopropyl-1-[2-(1,3-dimethyl-2,6-dioxo-1,2,3,6-tetrahydro-purin-7-yl)-acetyl]-urea]: the “NGF30 binding AVERAGE” value with anti-NGF mAb NGF30 (binding to immobilized NGF, no cpd = 100%, mAb NGF30 50 nM, as described for FIG. 1A) is listed as 88%. In addition, the “effect on mAb NGF30 binding to NGF” value with anti-NGF mAb NGF30 (setting [2]) is reported as “did not interfere”. The “cell viability (MTT) in presence of pro-NGF or pro-BDNF” value in the experiment with nnr5 cells and in the experiment with B104 cells was “prevented the loss of cell viability” in each case. The “TrkA-Fc binding AVERAGE” value on TrkA-Fc (binding to immobilized NGF, no cpd = 100%, TrkA-Fc 50 nM, as described for FIG. 1A) was found to be 107%. Further, the “effect on binding of TrkA to NGF” value at TrkA-Fc (setting [2]) is “did not interfere”. This compound also showed an RGCs surviving in experiment [1] of 92%.
